{
  "source": "patent US6825200B1",
  "about": "“Substituted dipeptides having nos inhibiting activity” (Fujisawa Pharmaceutical Co., Ltd., priority 1999, dated 2004)",
  "data": [
    {"system": "not given", "assay": "not given", "conditions": "not given", "units": {"melting point": "°C"}, "values": [
      {"smiles": "C[C@H](NC(=O)[C@H](Cc1ccccn1)NC(=O)c1cc2cc(Cl)ccc2o1)C(=O)N1CCN(c2ccc(Cl)cc2)CC1", "note": "[Example 22, 5-Chloro-N-[(1S)-2-[[(1S)-2-[4-(4-chlorophenyl)-1-piperazinyl]-1-methyl-2-oxoethyl]amino]-2-oxo-1-(2-pyridyl-methyl)ethyl]-1-benzofuran-2-carboxamide]", "melting point": "152 to 155"},
      {"smiles": "O=C(N[C@@H](Cc1ccccn1)C(=O)NCC(=O)N1CCN(c2ccccc2)C[C@H]1CO)c1cc2cc(Cl)ccc2o1", "note": "[Example 26, 5-Chloro-N-[(1S)-2-[[2-[(2S)-2-(hydroxymethyl)-4-phenyl-1-piperazinyl]-2-oxoethyl]amino]-2-oxo-1-(2-pyridylmethyl)ethyl]-1-benzofuran-2-carboxamide]", "melting point": "115 to 120"},
      {"smiles": "C[C@H](NC(=O)[C@H](Cc1ccccn1)NC(=O)/C=C/c1ccc(Cl)cc1)C(=O)N1CCN(c2ccc(Cl)cc2)CC1", "note": "[Example 23, (2E)-3-(4-Chlorophenyl)-N-[(1S)-2-[[(1S)-2-[4-(4-chlorophenyl)-1-piperazinyl]-1-methyl-2-oxoethyl]amino]-2-oxo-1-(2-pyridylmethyl)ethyl]-2-propenamide]", "melting point": "179 to 181"},
      {"smiles": "COC[C@@H]1CN(c2ccccc2)CCN1C(=O)CNC(=O)[C@H](Cc1ccccn1)NC(=O)c1cc2cc(Cl)ccc2o1", "note": "[Example 25, 5-Chloro-N-[(1S)-2-[[2-[(2S)-2-(methoxymethyl)-4-phenyl-1-piperazinyl]-2-oxoethyl]amino]-2-oxo-1-(2-pyridylmethyl)ethyl]-1-benzofuran-2-carboxamide]", "melting point": "95 to 100"},
      {"smiles": "O=C(N[C@@H](Cc1ccccn1)C(=O)NCC(=O)N1CCN(c2cccs2)CC1)c1cc2cc(Cl)ccc2o1", "note": "[Example 18, 5-Chloro-N-[(1S)-2-oxo-2-[[2-oxo-2-[4-(2-thienyl)-1-piperazinyl]ethyl]amino]-1-(2-pyridylmethyl)ethyl]-1-benzofuran-2-carboxamide]", "melting point": "75 to 85"}
    ]},
    {"system": "production of nitric oxide in murine macrophage cell line RAW264.7", "assay": "Assay for inhibitory activity on the production of nitric oxide (Griess reagent, LPS/INF γ-activated RAW264.7 cells)", "format": "cell-based", "conditions": "Mus musculus; test compound 10^−6 M; RAW264.7 cells activated with LPS (1 μg/ml) and INF γ (3 u/ml) for 18-24 hours; NO2^− by Griess reagent", "procedure": "Test 1: Assay for Inhibitory Activity on the Production of Nitric Oxide The murine macrophage cell line RAW264.7 (American Type Culture Collection, No. TIB71) was used in this study. RAW264.7 cells were grown on […] plastic culture flasks at 37° C., 5% in Dulbecco's modified Eagle's medium (DMEM) supplemented with L-glutamine, penicillin, streptomycin and 10% heat-inactivated fetal bovine serum. They were removed from culture flasks by rubber cell scraper and were centrifuged and resuspended in DMEM without phenol red. They were plated in 96-well microtiter plates (10^5 cells per well) and allowed to adhere over 2 hours. The test samples were added and the cells were preincubated for 1 hour. Thereafter the cells were activated with both of lipopolysaccharide (LPS) (1 μg/ml) and interferon γ (INF γ) (3 u/ml) for 18-24 hours. An equal volume of Griess reagent (1% sulfanilamide/0.1% N-naphthylethylenediamine dihydrochloride/2.5% H3PO4) was added and the cells were incubated at room temperature for 10 minutes. The absorbance was read at 570 nm using microplate reader and NO2^- was measured using NaNO2 as a standard.", "units": {"inhibition at 1 µM": "%"}, "values": [
      {"smiles": "O=C(N[C@@H](Cc1ccccn1)C(=O)NCC(=O)N1CCN(c2ccc(Cl)cc2)CC1)c1cc2cc(Cl)ccc2o1", "note": "[Compound (a), 5-Chloro-N-[(1S)-2-[[2-[4-(4-chlorophenyl)-1-piperazinyl]-2-oxoethyl]amino]-2-oxo-1-(2-pyridylmethyl)ethyl]-1-benzofuran-2-carboxamide]", "inhibition at 1 µM": 100},
      {"smiles": "Cc1ccc(N2C[C@@H](C)N(C(=O)CNC(=O)[C@H](Cc3ccccn3)NC(=O)/C=C/c3ccc(Cl)cc3)[C@@H](C)C2)cc1", "note": "[Compound (c), (2E)-3-(4-Chlorophenyl)-N-[(1S)-2-[[2-[(2R,6S)-2,6-dimethyl-4-(4-methylphenyl)-1-piperazinyl]-2-oxoethyl]amino]-2-oxo-1-(2-pyridylmethyl)ethyl]-2-propenamide]", "inhibition at 1 µM": 100},
      {"smiles": "COc1ccc(N2CCN(C(=O)CNC(=O)[C@H](Cc3ccccn3)NC(=O)c3cc4cc(Cl)ccc4o3)CC2)cc1", "note": "[Compound (f), 5-Chloro-N-[(1S)-2-[[2-[4-(4-methoxyphenyl)-1-piperazinyl]-2-oxoethyl]amino]-2-oxo-1-(2-pyridylmethyl)ethyl]-1-benzofuran-2-carboxamide]", "inhibition at 1 µM": 100},
      {"smiles": "O=C(/C=C/c1ccc(Cl)cc1)N[C@@H](Cc1ccccn1)C(=O)NCC(=O)N1CCN(CCC(F)(F)F)CC1", "note": "[Compound (d), (2E)-3-(4-Chlorophenyl)-N-[(1S)-2-oxo-2-[[2-oxo-2-[4-(3,3,3-trifluoropropyl)-1-piperazinyl]ethyl]amino]-1-(2-pyridylmethyl)ethyl]-2-propenamide]", "inhibition at 1 µM": 100},
      {"smiles": "O=C(/C=C/c1ccc(Cl)cc1)N[C@@H](Cc1ccccn1)C(=O)NCC(=O)N1CCN(c2ccc(C(F)(F)F)cc2)CC1", "note": "[Compound (e), (2E)-3-(4-Chlorophenyl)-N-[(1S)-2-oxo-2-[[2-oxo-2-[4-(4-trifluoromethylphenyl)-1-piperazinyl]ethyl]amino]-1-(2-pyridylmethyl)ethyl]-2-propenamide]", "inhibition at 1 µM": 99},
      {"smiles": "C[C@H]1CN(c2ccccc2)CCN1C(=O)CNC(=O)[C@H](Cc1ccccn1)NC(=O)/C=C/c1ccc(Cl)cc1", "note": "[Compound (b), (2E)-3-(4-Chlorophenyl)-N-[(1S)-2-[[2-((2S)-2-methyl-4-phenyl-1-piperazinyl)-2-oxoethyl]amino]-2-oxo-1-(2-pyridylmethyl)ethyl]-2-propenamide]", "inhibition at 1 µM": 100}
    ]}
  ]
}
